pIC50: −log10 of the molar value. Where two headings read alike, the source gives them in different places. Positions of bridges follow the written chain, without caps; N, C: chain ends. Non-standard residues stand in square brackets, D forms with d. Residues, ends and D or L forms follow the SMILES beside them. No end group written: not given here. ξ: configuration not given here. Tic = O=C(O)[C@@H]1Cc2ccccc2CN1; ξIle = CC[C@H](C)C(N)C(=O)O; Aib = CC(C)(N)C(=O)O
Target: T1, SARS-CoV-2 Spike A (wild-type) (Severe acute respiratory syndrome coronavirus 2, UniProt P0DTC2)
T1 construct: purchased Meso Scale Diagnostics, LLC V-PLEX SARS-CoV-2 Panel 13 (ACE2) Kit / Panel 23 (ACE2) Kit
Test: MSD ACE2 competition assay (inhibition of Spike binding with ACE2, ECL), A (wild-type)

[1] = IC50 Wild Type, Wild Type Spike

Molecule | pIC50 [1] | other results
CC[C@H](C)[C@H](NC(=O)[C@H](CC(C)C)NC(=O)[C@H](CC(=O)O)NC(=O)[C@H](CO)NC(=O)[C@@H]1CSSC[C@H](NC(=O)[C@@H](NC(=O)[C@H](CCC(=O)O)NC(=O)[C@H](Cc2ccc(O)cc2)NC(=O)[C@@H](NC(=O)[C@H](CCCCN)NC(=O)[C@H](CCC(N)=O)NC(=O)[C@H](CC(C)C)NC(=O)[C@@H](NC(=O)[C@H](Cc2c[nH]c3ccccc23)NC(=O)[C@H](CCC(=O)O)NC(=O)[C@H](CCCCN)NC(=O)[C@@H](N)CC(=O)O)[C@@H](C)CC)[C@@H](C)CC)[C@@H](C)CC)C(=O)N[C@@H](CCCNC(=N)N)C(=O)N[C@@H](CC(C)C)C(=O)N[C@@H](CC(C)C)C(=O)N[C@@H](CC(=O)O)C(=O)N[C@@H](CCC(=O)O)C(=O)N[C@@H](CC(C)C)C(=O)NCC(=O)N[C@@H](Cc2cnc[nH]2)C(=O)N[C@@H](C)C(=O)N[C@@H](CCC(=O)O)C(=O)N[C@@H](C)C(=O)N[C@@H](CO)C(=O)N[C@@H](CCSC)C(=O)N[C@@H](CCCNC(=N)N)C(=O)N1)C(=O)N[C@@H](Cc1ccc(O)cc1)C(=O)N[C@@H](CCC(=O)O)C(=O)N[C@@H](Cc1ccccc1)C(=O)N[C@@H](CCSC)C(=O)N[C@@H](CCCCN)C(=O)N[C@@H](CCCCN)C(=O)NCC(=O)O [Compound 136] (H-DKEWILQKIYEICRLLDELGHAEASMRCSDLIYEFMKKG-OH; disulfide 13-28) | 8.60 | 
CC[C@H](C)[C@H](NC(=O)[C@H](CC(C)C)NC(=O)[C@H](CC(=O)O)NC(=O)[C@H](CO)NC(=O)[C@@H](NC(=O)[C@H](CCCNC(=N)N)NC(=O)[C@H](CCSC)NC(=O)[C@H](CO)NC(=O)[C@H](C)NC(=O)[C@H](CCC(=O)O)NC(=O)[C@H](C)NC(=O)[C@H](Cc1c[nH]cn1)NC(=O)CNC(=O)[C@H](CC(C)C)NC(=O)[C@H](CCC(=O)O)NC(=O)[C@H](CC(=O)O)NC(=O)[C@H](CC(C)C)NC(=O)[C@H](CC(C)C)NC(=O)[C@H](CCCNC(=N)N)NC(=O)[C@H](CCSC)NC(=O)[C@@H](NC(=O)[C@H](CCC(=O)O)NC(=O)[C@H](Cc1ccc(O)cc1)NC(=O)[C@@H](NC(=O)[C@H](CCCCN)NC(=O)[C@H](CCC(N)=O)NC(=O)[C@H](CC(C)C)NC(=O)[C@@H](NC(=O)[C@H](Cc1c[nH]c2ccccc12)NC(=O)[C@H](CCC(=O)O)NC(=O)[C@H](CCCCN)NC(=O)[C@@H](N)CC(=O)O)[C@@H](C)CC)[C@@H](C)CC)[C@@H](C)CC)C(C)C)C(=O)N[C@@H](Cc1ccc(O)cc1)C(=O)N[C@@H](CCC(=O)O)C(=O)N[C@@H](Cc1ccccc1)C(=O)N[C@@H](CCSC)C(=O)N[C@@H](CCCCN)C(=O)N[C@@H](CCCCN)C(=O)NCC(=O)O [Compound 102] | 8.22 | 
CC[C@H](C)[C@H](NC(=O)[C@H](CCCCN)NC(=O)[C@H](CCC(N)=O)NC(C)=O)C(=O)N[C@@H](Cc1ccc(O)cc1)C(=O)N[C@@H](CCC(=O)O)C(=O)N[C@H](C(=O)N[C@H]1CSSC[C@@H](C(=O)N[C@@H](CO)C(=O)N[C@@H](CC(=O)O)C(=O)N[C@@H](CC(C)C)C(=O)N[C@H](C(=O)N[C@@H](Cc2ccc(O)cc2)C(=O)N[C@@H](CCC(=O)O)C(=O)N[C@@H](Cc2ccccc2)C(=O)N[C@@H](CCSC)C(=O)N[C@@H](CCCCN)C(=O)N[C@@H](CCCCN)C(=O)NCC(=O)O)[C@@H](C)CC)NC(=O)[C@H](CCCNC(=N)N)NC(=O)[C@H](CCSC)NC(=O)[C@H](CO)NC(=O)[C@H](C)NC(=O)[C@H](CCC(=O)O)NC(=O)[C@H](C)NC(=O)[C@H](Cc2cnc[nH]2)NC(=O)CNC(=O)[C@H](CC(C)C)NC(=O)[C@H](CCC(=O)O)NC(=O)[C@H](CC(=O)O)NC(=O)[C@H](CC(C)C)NC(=O)[C@H](CC(C)C)NC(=O)[C@H](CCCNC(=N)N)NC1=O)[C@@H](C)CC [Compound 132] (Ac-QKIYEICRLLDELGHAEASMRCSDLIYEFMKKG-OH; disulfide 7-22) |  | pIC50 (read-out: IC50 Wild Type, Wild Type Spike): 5.23
CC[C@H](C)[C@H](NC(=O)[C@H](CC(C)C)NC(=O)[C@H](CC(=O)O)NC(=O)[C@H](CO)NC(=O)[C@@H](NC(=O)[C@H](CCCNC(=N)N)NC(=O)[C@H](CCSC)NC(=O)[C@@H]1CSSC[C@H](NC(=O)[C@H](CC(C)C)NC(=O)[C@H](CCCNC(=N)N)NC(=O)[C@H](CCSC)NC(=O)[C@@H](NC(=O)[C@H](CCC(=O)O)NC(=O)[C@H](Cc2ccc(O)cc2)NC(=O)[C@@H](NC(=O)[C@H](CCCCN)NC(=O)[C@H](CCC(N)=O)NC(=O)[C@H](CC(C)C)NC(=O)[C@@H](NC(=O)[C@H](Cc2c[nH]c3ccccc23)NC(=O)[C@H](CCC(=O)O)NC(=O)[C@H](CCCCN)NC(=O)[C@H](CC(=O)O)NC(=O)[C@H](CO)NC(C)=O)[C@@H](C)CC)[C@@H](C)CC)[C@@H](C)CC)C(=O)N[C@@H](CC(=O)O)C(=O)N[C@@H](CCC(=O)O)C(=O)N[C@@H](CC(C)C)C(=O)NCC(=O)N[C@@H](Cc2c[nH]cn2)C(=O)N[C@@H](C)C(=O)N[C@@H](CCC(=O)O)C(=O)N[C@@H](C)C(=O)N1)C(C)C)C(=O)N[C@@H](Cc1ccc(O)cc1)C(=O)N[C@@H](CCC(=O)O)C(=O)N[C@@H](Cc1ccccc1)C(=O)N[C@@H](CCSC)C(=O)N[C@@H](CCCCN)C(=O)N[C@@H](CCCCN)C(=O)NCC(N)=O [Compound 176] |  | pIC50 (read-out: IC50, Wild Type, Wild Type): 8.30
CC[C@H](C)C(N)C(=O)N[C@@H](CC(C)C)C(=O)N[C@@H](CCC(N)=O)C(=O)N[C@@H](CCCCN)C(=O)N[C@H](C(=O)N[C@@H](Cc1ccc(O)cc1)C(=O)N[C@@H](CCC(=O)O)C(=O)N[C@H](C(=O)N[C@H]1CSSC[C@@H](C(=O)N[C@@H](CO)C(=O)N[C@@H](CC(=O)O)C(=O)N[C@@H](CC(C)C)C(=O)N[C@H](C(=O)N[C@@H](Cc2ccc(O)cc2)C(=O)N[C@@H](CCC(=O)O)C(=O)N[C@@H](Cc2ccccc2)C(=O)N[C@@H](CCSC)C(=O)N[C@@H](CCCCN)C(=O)N[C@@H](CCCCN)C(=O)NCC(=O)O)[C@@H](C)CC)NC(=O)[C@H](CCCNC(=N)N)NC(=O)[C@H](CCSC)NC(=O)[C@H](CO)NC(=O)[C@H](C)NC(=O)[C@H](CCC(=O)O)NC(=O)[C@H](C)NC(=O)[C@H](Cc2cnc[nH]2)NC(=O)CNC(=O)[C@H](CC(C)C)NC(=O)[C@H](CCC(=O)O)NC(=O)[C@H](CC(=O)O)NC(=O)[C@H](CC(C)C)NC(=O)[C@H](CC(C)C)NC(=O)[C@H](CCCNC(=N)N)NC1=O)[C@@H](C)CC)[C@@H](C)CC (some centres unmarked) [Compound 134] (H-[ξIle]LQKIYEICRLLDELGHAEASMRCSDLIYEFMKKG-OH; disulfide 9-24) | 7.92 | 
CC[C@H](C)[C@H](NC(=O)[C@H](CCCCN)NC(=O)[C@H](CCC(N)=O)NC(C)=O)C(=O)N[C@@H](Cc1ccc(O)cc1)C(=O)N[C@@H](CCC(=O)O)C(=O)N[C@H](C(=O)N[C@H]1CSSC[C@@H](C(=O)N[C@@H](CO)C(=O)N[C@@H](CC(=O)O)C(=O)N[C@@H](CC(C)C)C(=O)N[C@H](C(=O)N[C@@H](Cc2ccc(O)cc2)C(=O)N[C@@H](CCC(=O)O)C(=O)N[C@@H](Cc2ccccc2)C(=O)N[C@@H](CCSC)C(=O)N[C@@H](CCCCN)C(=O)N[C@@H](CCCCN)C(=O)NCC(=O)O)[C@@H](C)CC)NC(=O)[C@H](CCCNC(=N)N)NC(=O)[C@H](CCSC)NC(=O)[C@H](CO)NC(=O)[C@H](C)NC(=O)[C@H](CCC(=O)O)NC(=O)[C@H](C)NC(=O)[C@H](Cc2cnc[nH]2)NC(=O)CNC(=O)[C@H](CC(C)C)NC(=O)[C@H](CCC(=O)O)NC(=O)[C@H](CC(=O)O)NC(=O)[C@H](CC(C)C)NC(=O)[C@H](CC(C)C)NC(=O)[C@H](CCCNC(=N)N)NC1=O)[C@@H](C)CC [Compound 133] (Ac-QKIYEICRLLDELGHAEASMRCSDLIYEFMKKG-OH; disulfide 7-22) | 5.82 | 
CC[C@H](C)[C@H](NC(=O)[C@H](CC(C)C)NC(=O)[C@H](CC(=O)O)NC(=O)[C@H](CO)NC(=O)[C@@H](NC(=O)[C@H](CCCNC(=N)N)NC(=O)[C@H](CCSC)NC(=O)[C@@H]1CSSC[C@H](NC(=O)[C@H](CC(C)C)NC(=O)[C@H](CCCNC(=N)N)NC(=O)[C@H](CCSC)NC(=O)[C@@H](NC(=O)[C@H](CCC(=O)O)NC(=O)[C@H](Cc2ccc(O)cc2)NC(=O)[C@@H](NC(=O)[C@H](CCCCN)NC(=O)[C@H](CCC(N)=O)NC(=O)[C@H](CC(C)C)NC(=O)[C@@H](NC(=O)[C@H](Cc2c[nH]c3ccccc23)NC(=O)[C@H](CCC(=O)O)NC(=O)[C@H](CCCCN)NC(=O)[C@@H](N)CC(=O)O)[C@@H](C)CC)[C@@H](C)CC)[C@@H](C)CC)C(=O)N[C@@H](CC(=O)O)C(=O)N[C@@H](CCC(=O)O)C(=O)N[C@@H](CC(C)C)C(=O)NCC(=O)N[C@@H](Cc2c[nH]cn2)C(=O)N[C@@H](C)C(=O)N[C@@H](CCC(=O)O)C(=O)N[C@@H](C)C(=O)N1)C(C)C)C(=O)N[C@@H](Cc1ccc(O)cc1)C(=O)N[C@@H](CCC(=O)O)C(=O)N[C@@H](Cc1ccccc1)C(=O)N[C@@H](CCSC)C(=O)N[C@@H](CCCCN)C(=O)N[C@@H](CCCCN)C(=O)NCC(N)=O [Compound 138] (H-DKEWILQKIYEIMRLCDELGHAEACMRVSDLIYEFMKKG-NH2; disulfide 16-25) |  | pIC50 (IC50, Wild Type, Wild Type): 7.90
{CH2CO}-ASYHLGELVW[Tic][Aib]C[dE]ILQKIYEIMRLLDELGHAEASMRVSDLIYEFMKK (thioether N-13) [Compound 131] | 7.50 | 
